Experimental data published in patent US10023587B2, “Oxabicycloheptanes and oxabicycloheptenes, their preparation and use” (LIXTE BIOTECHNOLOGY, INC., priority 2007, dated 2018).

How the values were obtained:
[1] = system: 23 clinical fungal isolates; test: Antifungal susceptibility testing, whole panel of 23 isolates; type: cell-based; settings: at the levels tested, 0.125-64 μg/ml
Method: Anti-fungal testing was completed with a common lot for compounds 100 and 102.
A 10 mg portion of each powder was weighed out and added to 1 ml of sterile distilled water for compound 100 and DMSO for compound 102. The resulting concentration of […] was diluted to a working concentration of 640 μg/ml for each compound. All subsequent dilutions were also made using the respective diluents. Final testing concentrations ranged from 0.125-64 μg/ml.
A total of 23 isolates were tested to include 3 Candida albicans, 3 Candida glabrata, 3 Cryptococcus neoformans, 3 Aspergillus fumigatus, 3 Rhizopus oryzae, 3, Fusarium solani, 3 Pseudallescheria boydii, and 2 […] rubrum. All isolates were clinical isolates submitted to the Fungus Testing Laboratory for evaluation. Antifungal susceptibility testing was accomplished according to the methods outlined in the National Committee for Clinical Laboratory Standards, M-27A2, Reference Method for Broth Dilution Antifungal Susceptibility Testing of Yeasts; Approved Standard, and M38-A “Reference Method for Broth Dilution Antifungal Susceptibility Testing of Conidium-Forming Filamentous Fungi; Approved Standard”. This includes testing in RPMI-1640 with glutamine and without bicarbonate, an inoculum size of 0.5-2.5×10^3 for yeasts or 1-5×10^4 for moulds, and incubation at 35° C. for 24 and 48 hours.

[2] = system: GBM cell line U373; test: cells; type: cell-based, human; settings: for Percent of Control, Observed: U373 (Table 4)
Method: To observe the effects Compound 100 in combination with retinoic acids, Compound 100 was combined with all-trans retinoic acid. […] The total number of cells is counted in the triplicate cultures at each dose and in controls after 7 days and the average number of cells and the standard deviation is determined.
The amount of inhibition of GBM cell growth is expressed as the proportion of the number of cells in the experimental dishes compared to the number of cells in control dishes containing only the drug vehicle and culture medium. The average percent of control is plotted and bracketed by one standard deviation calculated from the triplicate measurements.
Synergism (potentiation) of the inhibitory activity of two drugs in combination is said to be present when the percent survival in the presence of two drugs is less than the product of the percent survivals of the two drugs used alone at the same doses in the combination.

## CN1CCN(C(=O)C2C(C(=O)O)[C@H]3CC[C@@H]2O3)CC1 (stereo partly shown) [Compound 100, Endothall 4-Methylpiperazine Monoamide]
[1]
  Antifungal activity, all isolates (in words): no activity
[2]; Compound 100 1 μM
  Percent of Control, Observed: 97.9 +/− 1.0% of Control
[2]; Compound 100 5 μM
  Percent of Control, Observed: 52.5 +/− 2.9% of Control
[2]; Homo sapiens, U373 MG, 168 h, Compound 100 1 uM, U373, 7 days (Table 3), read-out: Percent of Control, Observed
  activity at 1 µM: 78%
